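In this assay, cells in 96-well plates receive the compound at five concentrations for 48 hours. Endpoints are linearly interpolated between the surrounding concentrations. GI50 = concentration required for 50% inhibition of growth. Definition used: TGI = concentration required for complete inhibition of growth.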
Columns and labels:
Experiment in all cases: NCI-60 cell line screen, 48 h
[1] = system: 786-0 renal
[2] = system: A498 renal
[3] = system: A549 NSCLC
[4] = system: ACHN renal
[5] = system: BT-549 breast
[6] = system: CAKI-1 renal
[7] = system: CCRF-CEM leukemia
[8] = system: COLO 205 colon
[9] = system: DU-145 prostate
[10] = system: EKVX NSCLC
[11] = system: HCC-2998 colon
[12] = system: HCT-116 colon
[13] = system: HCT-15 colon
[14] = system: HOP-62 NSCLC
[15] = system: HOP-92 NSCLC
[16] = system: HS 578T breast
[17] = system: HT29 colon
[18] = system: IGROV1 ovarian
[19] = system: K-562 leukemia
[20] = system: KM12 colon
[21] = system: LOX IMVI melanoma
[22] = system: M14 melanoma
[23] = system: MALME-3M melanoma
[24] = system: MCF7 breast
[25] = system: MDA-MB-231 breast
[26] = system: MDA-MB-435
[27] = system: MDA-MB-468 breast
[28] = system: MOLT-4 leukemia
[29] = system: NCI-H226 lung
[30] = system: NCI-H23 lung
[31] = system: NCI-H460 lung
[32] = system: NCI-H522 lung
[33] = system: OVCAR-3 ovarian
[34] = system: OVCAR-4 ovarian
[35] = system: OVCAR-5 ovarian
[36] = system: OVCAR-8 ovarian
[37] = system: PC-3 prostate
[38] = system: RPMI-8226 leukemia
[39] = system: RXF 393 renal
[40] = system: SF-268 CNS
[41] = system: SF-295 CNS
[42] = system: SF-539 CNS
[43] = system: SK-MEL-2 melanoma
[44] = system: SK-MEL-28 melanoma
[45] = system: SK-MEL-5 melanoma
[46] = system: SK-OV-3 ovarian
[47] = system: SN12C renal
[48] = system: SNB-19 CNS
[49] = system: SNB-75 CNS
[50] = system: SR leukemia
[51] = system: SW-620 colon
[52] = system: T-47D breast
[53] = system: TK-10 renal
[54] = system: U251 CNS
[55] = system: UACC-257 melanoma
[56] = system: UACC-62 melanoma
[57] = system: UO-31 renal
[58] = system: HL-60(TB) leukemia

For `O=c1oc2ccc(-c3ccc(F)cc3F)cc2c(=O)n1-c1ccc(F)c(Cl)c1`, the GI50 [1] was 2.38 µM, the TGI [1] was 7.2 µM and the GI50 [2] was 2.25 µM. The TGI [2] was 6.36 µM, the GI50 [3] was 2.87 µM and the TGI [3] was 15 µM. It also gave a GI50 [4] of 3.06 µM, a TGI [4] of 10.1 µM and a GI50 [5] of 1.8 µM. It also gave a TGI [5] of 4.14 µM, a GI50 [6] of 1.72 µM and a TGI [6] of 5.11 µM. The GI50 [7] was 3.69 µM, the TGI [7] was 35.4 µM and the GI50 [8] was 12.3 µM. The TGI [8] was 26.2 µM, the GI50 [9] was 4.12 µM and the TGI [9] was 25.3 µM. The GI50 [10] was 3 µM, the TGI [10] was 21.3 µM and the GI50 [11] was 3.42 µM. The TGI [11] was 12.4 µM, the GI50 [12] was 3.01 µM and the TGI [12] was 10.1 µM. The GI50 [13] was 3.17 µM, the TGI [13] was 14.9 µM and the GI50 [14] was 2.38 µM. It also gave a TGI [14] of 6.66 µM, a GI50 [15] of 0.808 µM and a TGI [15] of 4.78 µM. The GI50 [16] was 2.42 µM, the TGI [16] was 7.45 µM and the GI50 [17] was 9.51 µM. For the same molecule, the TGI [17] was 27.3 µM, the GI50 [18] was 3.49 µM and the TGI [18] was 17.4 µM. The GI50 [19] was 2.12 µM, the TGI [19] was over 100 µM and the GI50 [20] was 2.97 µM. For the same molecule, the TGI [20] was 9.62 µM, the GI50 [21] was 3.69 µM and the TGI [21] was 12.2 µM. It also gave a GI50 [22] of 3.28 µM, a TGI [22] of 11.1 µM and a GI50 [23] of 2.03 µM. The TGI [23] was 5.65 µM, the GI50 [24] was 3.27 µM and the TGI [24] was 56.9 µM. For the same molecule, the GI50 [25] was 1.37 µM, the TGI [25] was 3.77 µM and the GI50 [26] was 2.58 µM. It also gave a TGI [26] of 7.95 µM, a GI50 [27] of 2.25 µM and a TGI [27] of 5.84 µM. For the same molecule, the GI50 [28] was 3.83 µM, the TGI [28] was 45.1 µM and the GI50 [29] was 1.98 µM. It also gave a TGI [29] of 7.01 µM, a GI50 [30] of 2.21 µM and a TGI [30] of 6.45 µM. The GI50 [31] was 2.93 µM, the TGI [31] was 9.93 µM and the GI50 [32] was 1.85 µM. It also gave a TGI [32] of 6.39 µM, a GI50 [33] of 3.13 µM and a TGI [33] of 11.9 µM. For the same molecule, the GI50 [34] was 3.24 µM, the TGI [34] was 39.6 µM and the GI50 [35] was 3.68 µM. The TGI [35] was 20.6 µM, the GI50 [36] was 3.55 µM and the TGI [36] was 25.4 µM. The GI50 [37] was 3.18 µM, the TGI [37] was 13.7 µM and the GI50 [38] was 1.62 µM. It also gave a TGI [38] of 6.62 µM, a GI50 [39] of 1.77 µM and a TGI [39] of 5.67 µM. The GI50 [40] was 2.69 µM, the TGI [40] was 11.6 µM and the GI50 [41] was 2.68 µM. For the same molecule, the TGI [41] was 7.72 µM, the GI50 [42] was 3.16 µM and the TGI [42] was 10.4 µM. The GI50 [43] was 2.09 µM, the TGI [43] was 4.56 µM and the GI50 [44] was 3.29 µM. The TGI [44] was 12.7 µM, the GI50 [45] was 1.46 µM and the TGI [45] was 3.03 µM. It also gave a GI50 [46] of 2.41 µM, a TGI [46] of 6.33 µM and a GI50 [47] of 2.16 µM. It also gave a TGI [47] of 8.67 µM, a GI50 [48] of 3.79 µM and a TGI [48] of 23.8 µM. The GI50 [49] was 1.59 µM, the TGI [49] was 5.77 µM and the GI50 [50] was 2.96 µM. The TGI [50] was 20.5 µM, the GI50 [51] was 3.43 µM and the TGI [51] was 13 µM. The GI50 [52] was 2.28 µM, the TGI [52] was 6.71 µM and the GI50 [53] was 3.11 µM. It also gave a TGI [53] of 9.19 µM, a GI50 [54] of 2.9 µM and a TGI [54] of 11.7 µM. It also gave a GI50 [55] of 2.07 µM, a TGI [55] of 6.51 µM and a GI50 [56] of 1.88 µM. It also gave a TGI [56] of 5.01 µM, a GI50 [57] of 2.4 µM and a TGI [57] of 9.98 µM.

`O=C(/C=C/c1ccco1)c1nc2ccccc2n1Cc1ccc(Br)cc1` gave a GI50 [1] of 21.3 µM, a TGI [1] of 76.4 µM and a GI50 [2] of 28.7 µM. For the same molecule, the TGI [2] was 65.3 µM, the GI50 [3] was 21.2 µM and the TGI [3] was over 100 µM. For the same molecule, the GI50 [4] was 22 µM, the TGI [4] was 69.1 µM and the GI50 [5] was 13.8 µM. For the same molecule, the TGI [5] was 35.7 µM, the GI50 [6] was 14 µM and the TGI [6] was over 100 µM. The GI50 [7] was 12.3 µM, the TGI [7] was over 100 µM and the GI50 [8] was 17.6 µM. The TGI [8] was 34.1 µM, the GI50 [9] was 21 µM and the TGI [9] was over 100 µM. It also gave a GI50 [10] of 26.2 µM, a TGI [10] of over 100 µM and a GI50 [11] of 14.9 µM. The TGI [11] was 28.8 µM, the GI50 [12] was 15 µM and the TGI [12] was 61.7 µM. It also gave a GI50 [13] of 6.96 µM, a TGI [13] of 23.2 µM and a GI50 [58] of 12.7 µM. It also gave a TGI [58] of over 100 µM, a GI50 [14] of 19.7 µM and a TGI [14] of 49.2 µM. The GI50 [15] was 5.77 µM, the TGI [15] was 33.5 µM and the GI50 [16] was 30.4 µM. For the same molecule, the TGI [16] was over 100 µM, the GI50 [17] was 31.1 µM and the TGI [17] was over 100 µM. For the same molecule, the GI50 [18] was 15.6 µM, the TGI [18] was 63.7 µM and the GI50 [19] was 10.6 µM. For the same molecule, the TGI [19] was over 100 µM, the GI50 [20] was 12.5 µM and the TGI [20] was 34.3 µM. It also gave a GI50 [21] of 12.2 µM, a TGI [21] of 27.3 µM and a GI50 [22] of 18.9 µM. It also gave a TGI [22] of 38.3 µM, a GI50 [23] of 16 µM and a TGI [23] of 33.9 µM. It also gave a GI50 [24] of 2.9 µM, a TGI [24] of over 100 µM and a GI50 [25] of 14 µM. For the same molecule, the TGI [25] was 34.6 µM, the GI50 [26] was 15 µM and the TGI [26] was 36.9 µM. It also gave a GI50 [27] of 7.31 µM, a TGI [27] of 26.9 µM and a GI50 [28] of 6.57 µM. It also gave a TGI [28] of over 100 µM, a GI50 [29] of 19.3 µM and a TGI [29] of 53 µM. The GI50 [30] was 13.7 µM, the TGI [30] was 42.3 µM and the GI50 [31] was 15.2 µM. It also gave a TGI [31] of 38.1 µM, a GI50 [32] of 15.6 µM and a TGI [32] of 38.9 µM. It also gave a GI50 [33] of 8.02 µM, a TGI [33] of 30.4 µM and a GI50 [34] of 23.6 µM. The TGI [34] was over 100 µM, the GI50 [35] was 17.9 µM and the TGI [35] was 38.1 µM. For the same molecule, the GI50 [36] was 16.6 µM, the TGI [36] was 39.7 µM and the GI50 [37] was 23.9 µM. It also gave a TGI [37] of over 100 µM, a GI50 [38] of 15.8 µM and a TGI [38] of over 100 µM. The GI50 [39] was 9.57 µM, the TGI [39] was 22.1 µM and the GI50 [40] was 27.2 µM. For the same molecule, the TGI [40] was over 100 µM, the GI50 [41] was 16.7 µM and the TGI [41] was 42.1 µM. For the same molecule, the GI50 [42] was 17.8 µM, the TGI [42] was 35 µM and the GI50 [43] was 16.3 µM. The TGI [43] was 35.7 µM, the GI50 [44] was 15.6 µM and the TGI [44] was 32.1 µM. The GI50 [45] was 14.1 µM, the TGI [45] was 28 µM and the GI50 [46] was 34.5 µM. For the same molecule, the TGI [46] was over 100 µM, the GI50 [47] was 19.9 µM and the TGI [47] was 52.5 µM. It also gave a GI50 [48] of 14.4 µM, a TGI [48] of 34.7 µM and a GI50 [49] of 13 µM. It also gave a TGI [49] of over 100 µM, a GI50 [50] of 9.23 µM and a TGI [50] of over 100 µM. The GI50 [51] was 12.1 µM, the TGI [51] was 48.4 µM and the GI50 [52] was 6.12 µM. The TGI [52] was over 100 µM, the GI50 [53] was 32.8 µM and the TGI [53] was over 100 µM. It also gave a GI50 [54] of 12 µM, a TGI [54] of 26.8 µM and a GI50 [55] of 17.4 µM. The TGI [55] was 68.4 µM, the GI50 [56] was 10.8 µM and the TGI [56] was 26.2 µM. It also gave a GI50 [57] of 11 µM and a TGI [57] of 26.4 µM.
